Blank lines part the entries; values can stand above or below the molecule they belong to.
Tests used:
[1] = test system: premature translation termination (luciferase reporter with premature stop codon); experiment: Suppression assay in cells transiently transfected with stop codon luciferase plasmids; assay type: cell-based; details: cells transiently infected with pMLT49, pMLT54 or pMLT55h for 24 hours; 12 hour exposure; FIGS. 2A-C
Procedure: Cells, transiently infected with the indicated plasmids for 24 hours, were exposed to the indicated concentration of G418 (panel A, pMLT49; panel B, pMLT54; panel C, pMLT55h). Luciferase activity was measured after a 12 hour exposure.

[2] = test system: premature translation termination and NMD (luciferase reporter with premature stop codon); experiment: Cell-based assay, 293 cells stably transfected with pMLT55, luciferase activity; details: 12 hour exposure
Procedure: The indicated independent clones were exposed to the indicated concentrations of G418. Luciferase activity was measured after a 12 hour exposure.
The indicated cell numbers were plated per well of a 96 well plate. Cells were exposed to the indicated concentrations of G418. Luciferase activity was measured after a 12 hour exposure on a robotic 96 well plate reader. Gentamycin was also used to inhibit NMD and premature translation termination.
On day 1, clone 55–31, a 293 cell line stably transfected with pMLT 55 (see FIG. 1) was plated in 96 well plates in the morning in DMEM media with 10% fetal bovine serum. Approximately 80 plates are plated at 40,000 cells per well in 100 μL. The cells were incubated overnight at 37° C.
On day two, test compounds (1 μL of 1 mM stock solution in 100 μL DMSO; 10 μM final concentration) were added. G418 (1 mg/ml) was added to column 12 of each plate as a control. The plates were incubated at 37° C. for 12–16 hours.
On day three, luciferase substrate was added to the cells and the plates were read on a Torcon automated luciferase assay reader for 96 well plates (see, e.g., FIGS. 3–4). Luciferase substrate is commercially available, e.g., from Promega.

[3] = test system: premature translation termination (stop codon-containing luciferase RNA); experiment: Biochemical suppression assay using RRL (rabbit reticulocyte lysate) and luciferase RNA; details: WT or stop codon luciferase RNA, incubated 45 or 90 minutes, FIGS. 7A-B
Procedure: In vitro translation assays were performed in the presence of RRL, luciferase RNA (panel A, WT; panel B, stop codon) and the indicated concentrations of gentamycin. Reactions were incubated 45 or 90 minutes before luciferase activity was determined. WT and stop codon containing RNA are schematically shown. The reactions were performed in either a 96 or 384 well format. In vitro synthesized reporter RNA (see constructs in FIG. 5) was added to 15 μL of fully supplemented rabbit reticulocyte lysate according to standard methodology (prepared by the method of Jackson & Hunt, Methods in Enzymology 96:50–75 (1983). 0.5 to 1 μg of in vitro transcribed RNA was used per reaction. The reaction was mixed with 15 μL of a 2% DMSO solution containing 20 μM of test compound. The reaction was incubated for 90 minutes at 30° C. in a humidified incubator. Luciferase substrate was added and luciferase activity was read on a Torcon automated reader (see FIGS. 6–7).

[4] = test system: premature stop codons in the dystrophin gene; details: mdx mouse, Barton-Davis et al. 1999; cited from earlier work

Molecule: CN[C@@H]1[C@@H](O)[C@@H](O[C@@H]2[C@@H](O)[C@H](O[C@H]3O[C@H]([C@@H](C)O)[C@@H](O)[C@H](O)[C@H]3N)[C@@H](N)C[C@H]2N)OC[C@]1(C)O [G418]
- G418-mediated suppression (luciferase activity) [1]: not cell line specific
- G418-mediated suppression (luciferase activity), high throughput format ([2]; clone #31, 96 well plate, FIG. 4): suppression in a stably transfected 293 cell line (clone #31) in high throughput format
- G418-mediated suppression (relative luciferase activity, fold activation) ([2]; independent clones of 293 cells stably transfected with pMLT55, FIGS. 3A-B): suppression in various clones of stably transfected 293 cells

- Suppression by gentamycin (luciferase activity) [3]: time dependent
Molecule: gentamycin

Molecule: gentamycin sulfate
- Suppression of translational termination at premature stop codons [4]: found to suppress translational termination at premature stop codons in the dystrophin gene

— patent US7026122B2, “Methods of assaying for compounds that inhibit premature translation termination and nonsense-mediated RNA decay” (PTC Therapeutics, Inc., priority 1999, dated 2006)
